Columns and labels:
Assay type in all cases: in vivo
[1] = system: galium (catchweed bedstraw, Galium aparine); experiment: Test B postemergence plant response
Procedure, shortened: (§1)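 Seedlings in a loam soil and sand mix received a postemergence application of the formulated chemicals at the one- to two-leaf stage (2–10 cm tall). They were kept in a greenhouse for roughly 10 days, then scored for injury relative to untreated plants, 0 meaning no effect and 100 complete control.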

[2] = system: blackgrass (Alopecurus myosuroides); experiment: Test B postemergence plant response
Procedure, shortened: as §1

[3] = system: giant foxtail (Setaria faberii); experiment: Test B pre-/postemergence plant response
From the text: (§2) Seeds of plant species selected from bamyardgrass (Echinochloa crus-galli), kochia (Kochia scoparia), ragweed (common ragweed, Ambrosia elatior), Italian ryegrass (Lolium multiflorum), large (Lg) crabgrass (Digitaria sanguinalis), giant foxtail (Setaria faberii), momingglory (Ipomoea spp.), pigweed (Amaranthus retroflexus), velvetleaf (Abutilon theophrasti), wheat (Triticum aestivum), and corn (Zea mays) were planted into a blend of loam soil and sand and treated preemergence with a directed soil spray using test chemicals formulated in a non-phytotoxic solvent mixture which included a surfactant. At the same time, plants selected from these crop and weed species and also blackgrass (Alopecurus myosuroides), and galium (catchweed bedstraw, Galium aparine) were planted in pots containing the same blend of loam soil and sand and treated with postemergence applications of test chemicals formulated in the same manner. Plants ranged in height from 2 to 10 cm and were in the one- to two-leaf stage for the postemergence treatment. Treated plants and untreated controls were maintained in a greenhouse for approximately 10 days, after which time all treated plants were compared to untreated controls and visually evaluated for injury. Plant response ratings, summarized in Table B, are based on a 0 to 100 scale where 0 is no effect and 100 is complete control. A dash (-) response means no test result.

[4] = system: Italian ryegrass (Lolium multiflorum); experiment: Test B pre-/postemergence plant response
From the text: as §2

kochia (Kochia scoparia) = experiment: Test B pre-/postemergence plant response
From the text: as §2

[5] = system: wheat (Triticum aestivum); experiment: Test B pre-/postemergence plant response
From the text: as §2

[6] = system: barnyardgrass (Echinochloa crus-galli); experiment: Test B pre-/postemergence plant response
From the text: as §2

corn (Zea mays) = experiment: Test B pre-/postemergence plant response
From the text: as §2

[7] = system: ragweed (common ragweed, Ambrosia elatior); experiment: Test B pre-/postemergence plant response
From the text: as §2

[8] = system: pigweed (Amaranthus retroflexus); experiment: Test B pre-/postemergence plant response
From the text: as §2

[9] = system: ducksalad (Heteranthera limosa); experiment: Test C flooded paddy test plant response; conditions: Flood, 250 g ai/ha; scale of 0 to 100 where 0 is no effect and 100 is complete control; 13 to 15 days
Method: (§3) Plant species in the flooded paddy test selected from rice (Oryza sativa), small-flower umbrella sedge (Cyperus difformis), ducksalad (Heteranthera limosa), and bamyardgrass (Echinochloa crus-galli) were grown to the 2-leaf stage for testing. At time of treatment, test pots were flooded to 3 cm above the soil surface, treated by application of test compounds directly to the paddy water, and then maintained at that water depth for the duration of the test. Treated plants and controls were maintained in a greenhouse for 13 to 15 days, after which time all species were compared to controls and visually evaluated. Plant response ratings, summarized in Table C, are based on a scale of 0 to 100 where 0 is no effect and 100 is complete control. A dash (-) response means no test result.

[10] = system: small-flower umbrella sedge (Cyperus difformis); experiment: Test C flooded paddy test plant response; conditions: Flood, 250 g ai/ha; scale of 0 to 100 where 0 is no effect and 100 is complete control; 13 to 15 days
Method: as §3

[11] = system: barnyardgrass (Echinochloa crus-galli); experiment: Test C flooded paddy test plant response; conditions: Flood, 250 g ai/ha; scale of 0 to 100 where 0 is no effect and 100 is complete control; 13 to 15 days
Method: as §3

rice (Oryza sativa) = experiment: Test C flooded paddy test plant response; conditions: Flood, 250 g ai/ha; scale of 0 to 100 where 0 is no effect and 100 is complete control; 13 to 15 days
Method: as §3

[12] = 125 g ai/ha, postemergence, 0 to 100 scale, 0 no effect, 100 complete control
[13] = Postemergence, 31 g ai/ha, 0 to 100 scale (0 no effect, 100 complete control)
[14] = 31 g ai/ha, Preemergence, 0 to 100 scale where 0 is no effect and 100 is complete control
[15] = Preemergence, 125 g ai/ha, 0 to 100 scale (0 no effect, 100 complete control)
[16] = Postemergence, 500 g ai/ha, 0 to 100 scale (0 no effect, 100 complete control)
[17] = Preemergence, 500 g ai/ha, 0 to 100 scale where 0 is no effect and 100 is complete control
[18] = 31 g ai/ha, Postemergence, 0 to 100 scale, 0 no effect, 100 complete control
[19] = Preemergence, 125 g ai/ha, 0 to 100 scale where 0 is no effect and 100 is complete control

Row | SMILES | Plant response rating, Galium [1, 12] | Plant response rating, Blackgrass [2, 12] | Plant response rating, Foxtail, Giant [3, 14] | Plant response rating, Foxtail, Giant [3, 12] | Foxtail, Giant plant response rating [3, 15] | Plant response rating, Ryegrass, Italian [4, 14] | Plant response rating, Ryegrass, Italian [4, 12] | Ryegrass, Italian plant response rating [4, 15] | Plant response rating, Kochia (kochia (Kochia scoparia); [12]) | Kochia plant response rating (kochia (Kochia scoparia); [15]) | Plant response rating, Wheat [5, 12] | Plant response rating, Barnyardgrass [6, 14] | Plant response rating, Barnyardgrass [6, 12] | Plant response rating, Corn (corn (Zea mays); [12]) | Plant response rating, Ragweed [7, 12] | Plant response rating, Pigweed [8, 12] | Ducksalad plant response rating [9] | Sedge, Umbrella plant response rating [10] | Barnyardgrass plant response rating [11] | Rice plant response rating (rice (Oryza sativa)) | also measured
1 | Clc1cnc(Oc2ccccc2-c2ccno2)nc1 [Compound 154] | 0 | 0 | 0 | 0 | 0 | 0 | 0 | 0 | 0 | 0 | 0 | 0 | 0 | 0 | 0 | 0 | 0 | 0 | 0 | 0 | Plant response rating, Galium [1, 13]: 0; Plant response rating, Blackgrass [2, 13]: 0; Plant response rating, Foxtail, Giant [3, 13]: 0; Plant response rating, Ryegrass, Italian [4, 13]: 0; Plant response rating, Kochia (kochia (Kochia scoparia); [14]): 0; Plant response rating, Kochia (kochia (Kochia scoparia); [13]): 0; Plant response rating, Wheat [5, 13]: 0; Plant response rating, Barnyardgrass [6, 13]: 0; Barnyardgrass plant response rating [6, 15]: 0; Plant response rating, Corn (corn (Zea mays); [13]): 0; Plant response rating, Ragweed [7, 14]: 0; Plant response rating, Ragweed [7, 13]: 0; Ragweed plant response rating [7, 15]: 0; Plant response rating, Pigweed [8, 14]: 0; Plant response rating, Pigweed [8, 13]: 0; Pigweed plant response rating [8, 15]: 0
2 | Clc1cnc(Oc2ccccc2-c2cc(Cl)ccn2)nc1 [Compound 174] | 70 | 50 | 0 | 0 | 40 | 0 | 0 | 0 | 70 | 0 | 0 | 0 | 10 | 0 | 30 | 50 | 0 | 0 | 0 | 0 | Plant response rating, Galium [1, 13]: 60; Plant response rating, Blackgrass [2, 13]: 40; Plant response rating, Foxtail, Giant [3, 13]: 0; Plant response rating, Ryegrass, Italian [4, 13]: 0; Plant response rating, Kochia (kochia (Kochia scoparia); [13]): 60; Plant response rating, Wheat [5, 13]: 0; Plant response rating, Barnyardgrass [6, 13]: 0; Barnyardgrass plant response rating [6, 15]: 0; Plant response rating, Corn (corn (Zea mays); [13]): 0; Plant response rating, Ragweed [7, 14]: 0; Plant response rating, Ragweed [7, 13]: 20; Ragweed plant response rating [7, 15]: 0; Plant response rating, Pigweed [8, 14]: 60; Plant response rating, Pigweed [8, 13]: 50; Pigweed plant response rating [8, 15]: 80
3 | FC(F)(F)c1csc(-c2ccccc2Oc2ncc(Br)cn2)n1 [Compound 139] | 0 | 0 |  | 0 | 0 |  | 0 | 0 | 0 | 0 | 0 |  | 0 | 0 | 0 | 0 | 30 | 0 | 0 | 20 | Plant response rating, Galium [1, 16]: 0; Plant response rating, Blackgrass [2, 16]: 0; Plant response rating, Foxtail, Giant [3, 16]: 0; Plant response rating, Foxtail, Giant [3, 17]: 0; Plant response rating, Ryegrass, Italian [4, 16]: 0; Plant response rating, Ryegrass, Italian [4, 17]: 0; Plant response rating, Kochia (kochia (Kochia scoparia); [16]): 0; Plant response rating, Kochia (kochia (Kochia scoparia); [17]): 0; Plant response rating, Wheat [5, 16]: 0; Plant response rating, Barnyardgrass [6, 16]: 0; Barnyardgrass plant response rating [6, 15]: 0; Plant response rating, Barnyardgrass [6, 17]: 0; Plant response rating, Corn (corn (Zea mays); [16]): 0; Plant response rating, Ragweed [7, 16]: 0; Ragweed plant response rating [7, 15]: 0; Plant response rating, Ragweed [7, 17]: 0; Plant response rating, Pigweed [8, 16]: 0; Pigweed plant response rating [8, 15]: 0; Plant response rating, Pigweed [8, 17]: 0
4 | Clc1cnc(Oc2ccccc2-c2nnc(C3CC3)o2)nc1 [Compound 122] | 20 | 0 | 0 | 0 |  | 0 | 0 |  | 20 |  | 20 | 0 | 0 | 0 | 10 | 20 | 0 | 0 | 0 | 0 | Plant response rating, Blackgrass [2, 18]: 0; Plant response rating, Foxtail, Giant [3, 18]: 0; Plant response rating, Foxtail, Giant [3, 19]: 0; Plant response rating, Kochia (kochia (Kochia scoparia); [14]): 0; Plant response rating, Kochia (kochia (Kochia scoparia); [19]): 10; Plant response rating, Barnyardgrass [6, 18]: 0; Plant response rating, Barnyardgrass [6, 19]: 0; Plant response rating, Corn (corn (Zea mays); [18]): 0; Plant response rating, Ragweed [7, 14]: 0; Plant response rating, Pigweed [8, 14]: 10
